Source: article PMC9230671, “Fluorochrome Selection for Imaging Intraoperative Ovarian Cancer Probes” (Pharmaceuticals, 2022)

Key:
COX-1 = molecular target: T1, COX-1 (Ovis aries, UniProt P05979); experiment: COX-1 inhibition, COX (ovine/human) inhibitor screening assay kit; type: biochemical
T1 construct: purchased Cayman Chemicals (bought through Sigma-Aldrich) 560131
T1 sequence (P05979 25-600): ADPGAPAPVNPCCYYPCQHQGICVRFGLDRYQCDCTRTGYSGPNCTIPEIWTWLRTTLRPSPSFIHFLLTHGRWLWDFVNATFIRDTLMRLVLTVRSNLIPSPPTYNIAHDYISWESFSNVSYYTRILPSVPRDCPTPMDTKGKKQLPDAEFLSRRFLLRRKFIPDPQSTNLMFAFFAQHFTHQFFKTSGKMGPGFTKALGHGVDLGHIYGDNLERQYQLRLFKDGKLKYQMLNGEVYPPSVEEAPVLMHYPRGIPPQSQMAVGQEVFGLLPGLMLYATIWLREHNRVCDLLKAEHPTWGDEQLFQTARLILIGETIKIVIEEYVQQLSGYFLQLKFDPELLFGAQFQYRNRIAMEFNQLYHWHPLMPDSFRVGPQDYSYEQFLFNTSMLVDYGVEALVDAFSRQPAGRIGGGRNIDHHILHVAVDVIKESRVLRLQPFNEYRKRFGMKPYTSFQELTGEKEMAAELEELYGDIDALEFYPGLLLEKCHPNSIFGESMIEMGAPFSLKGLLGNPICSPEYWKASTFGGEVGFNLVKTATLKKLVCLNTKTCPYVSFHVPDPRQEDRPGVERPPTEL
Description: Cell culture reagents were purchased from Euroclone (Milan, Italy). COX (ovine/human) inhibitor screening assay kit (Catalog No. 560131, Cayman Chemicals, Ann Arbor, MI, USA) was purchased from Sigma-Aldrich, Burlington, MA, USA. […] The other reagents were purchased from Sigma-Aldrich, Burlington, MA, USA.
The COX-1/2 inhibition screening experiments were carried out according to the manufacturer’s instructions. The plate was incubated for 60 min at r.t. under shaking and read with the Tecan Infinite 200 Microplate Reader at λ = 405 nm.
The graph between percent inhibition of the enzyme and corresponding concentration of the compound provided IC50 values for the probe compounds.

OVCAR-3 xenograft tumors = experiment: NIR fluorescence imaging / biodistribution in OVCAR-3 s.c. xenograft models; type: in vivo, NSG mice; conditions: for tumor-to-background ratio (TBR): OVCAR-3 s.c. NSG mice, 100 µL of 500 µM i.v., after 24 h; for clearance pattern (organ): ex vivo NIR FLI 6 h after 500 µM i.v., OVCAR-3 mice
Description: To assess the capacity of both conjugates to visualize ovarian xenograft tumors “in vivo” and evaluate accumulation and clearance behavior of the conjugates, kinetic imaging was performed at six different time-points. Subcutaneously engrafted OVCAR-3 NSG mice were injected with 100 µL of 500 µM RR11 or 23 (MSA14) intravenously into the tail vein (Figure 3). […] Tumor-specific fluorescence was obtained 4, 6, and 24 h after RR11 injection, with a mean tumor-to-background ratio (TBR) of 1.74 after 24 h. In OVCAR-3 bearing NSG mice (n = 3), injected with 23 (MSA14), high liver signals (ventral view, #) were obtained at all time points with high compound accumulation in the tumors at 24 h (*, Figure 3B). The best TBR of 1.44 was achieved after 24 h. Residual background fluorescence was predominantly observed in the spine and limbs as well as in the excretion organs.
Following the biodistribution over time “in vivo”, we assessed the accumulation of the compounds “ex vivo” at 6 h. In Figure 4A, RR11-induced tumor-specific signal, along with high fluorescence in kidneys, gallbladder, stomach, and lungs, can be observed. […] The higher gastrointestinal fluorescence signal in RR11-imaged mice can derive from auto-fluorescent alfalfa containing diet, which is acquired in the lower wavelength of RR11. The main differences between the accumulation and clearance behavior are marked with an arrow, indicating two different clearance patterns of the compounds through liver (23, MSA14) and kidney (RR11). Finally, the fluorescence of 23 (MSA14) was evaluated in a clinically compatible intraoperative setting using the FLARE® system to assess the suitability of the COX-1 targeted NIR compound for FIGS and its potential clinical translation (Figure 4B). The “in vivo” and “ex vivo” intraoperative images confirm the results from Figure 3B and Figure 4A. […] While the tumor fluorescence intensities were higher than those of kidneys, the fluorescence intensities in the gallbladder and lungs were the highest.
Female NOD-scid IL2rγ^null (NSG) mice, aged 6 to 25 weeks were maintained under defined floral conditions and no more than five mice were housed in individually ventilated (HEPA-filtered air) cages, kept on a 12 h dark/night schedule at a constant temperature of 21 °C and at 50% relative humidity at the University of Bergen’s animal facility. Observations of body weight and general condition including activity levels, appearance, and food intake were monitored twice weekly, and humane endpoints were defined with the use of score sheets. When indicated, animals were euthanized according to institutional guidelines. […]

IC50 (COX-1) [nM]	SI (selectivity index) (COX-1)	COX-1 % inhib. (COX-1; at 50 µM compound final concentration) [%]	clearance pattern (organ) (OVCAR-3 xenograft tumors)	inhibition at 50 µM (COX-1; at 50 µM compound final concentration, read-out: COX-1 % inhib.) [%]	SMILES	tumor-to-background ratio (TBR) (OVCAR-3 xenograft tumors)
32	75	83	kidney	–	COc1ccc(-c2noc(CC(=O)NCCCCNc3cc4[o+]c5cc(N(C)C)ccc5nc4c4ccccc34)c2-c2ccc(OC)cc2)cc1.[Cl-] [RR11, N-[4-(9-dimethylimino-9H-benzo[a]phenoxazin-5-ylamino)butyl]-2-(3,4-bis(4-methoxyphenyl)isoxazol-5-yl)acetamide chloride, reference compound]	1.74
87	–	–	liver	57	CCN1/C(=C/C=C/C=C/C=C/C2=[N+](CCCCCC(=O)NCCCCNC(=O)Cc3onc(-c4ccc(OC)cc4)c3-c3ccc(OC)cc3)c3ccc4ccccc4c3C2(C)C)C(C)(C)c2c1ccc1ccccc21 [23 (MSA14), 3-(6-(4-(2-(3,4-Bis(4-methoxyphenyl)isoxazole-5-yl)acetamido)butyl)amino-6-oxohexyl)-2-[7-(1,3-dihydro-1,1-dimethyl-3-ethyl-2H-benz[e]indolin-2-yl-idene)-1,3,5-heptatrienyl]-1,1-dimethyl-3-(6-carboxilato-hexyl)-1H-benz[e]indolium chloride]	1.44
